Source: patent publication US8435744B2 (priority 2005, dated 2013)

Biological target: PrP^C from uninfected N2a58 cells (Mus musculus, UniProt P04925)
Format: cell-based, murine
Conditions: normal N2a58 cells, 3 days, 5 to 20 μM, before and after PK, FIG. 5

PrP^C from uninfected N2a58 cells, sequence (P04925 23-230 limits assumed): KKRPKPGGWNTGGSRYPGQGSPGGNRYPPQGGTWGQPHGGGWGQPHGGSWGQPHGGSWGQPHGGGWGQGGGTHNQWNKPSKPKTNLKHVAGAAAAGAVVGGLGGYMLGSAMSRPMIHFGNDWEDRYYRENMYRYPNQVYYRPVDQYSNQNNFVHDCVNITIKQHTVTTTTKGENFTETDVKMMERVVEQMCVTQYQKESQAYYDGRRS

CSc1nccc(-c2ccc(Br)s2)n1 [compound A, 4-(5-bromo-2-thienyl)-2-(methylthio)pyrimidine]
oligomeric forms of normal PrP or bands resistant to proteinase K digestion: does not make it possible to demonstrate oligomeric forms of the normal prion protein, PrP nor the appearance of bands resistant to proteinase K digestion
